# Measured values: patent US12433865B2, “Compositions comprising PGI2-receptor agonists and processes for the preparation thereof” (Arena Pharmaceuticals, Inc., priority 2018, dated 2025)
# Experiments:
# [1] = Open-label, fixed sequence single-dose pharmacokinetic study in healthy subjects (Example 7 A); assay type: in vivo, human
# Procedure: A. An open-label, fixed sequence, non-randomized study in two cohorts of healthy male and non-pregnant, non-lactating female subjects was conducted. Two cohorts with twelve subjects in each were enrolled to ensure data in ten evaluable subjects per cohort.
# Each subject in Cohort 1 received each of the following regimens, in the fasted state, in a sequential manner over four treatment periods: • Regimen A (0.03 mg immediate-release Compound 1): 1×0.03 mg Compound 1 immediate-release capsule. • Regimen B (0.06 mg modified-release Compound 1): 1×0.06 mg Compound 1 modified-release tablet as disclosed herein. • Regimen C (0.12 mg modified-release Compound 1): 2×0.06 mg Compound 1 modified-release tablets as disclosed herein. • Regimen D (0.18 mg modified-release Compound 1) 3×0.06 mg Compound 1 modified-release tablets as disclosed herein.
# Subjects received each regimen in the morning of Day 1, following an overnight fast of a minimum of 8 hours. PK samples were taken from subjects at 72 hours post-dose. There was a minimum washout period of 7 days between each administration of investigational medicinal product (IMP) (i.e., selexipag film-coated tablet(s), Compound 1 immediate-release capsule(s), and/or Compound 1 modified-release tablet(s)).
# For Cohort 1, subjects received Regimens […] in a sequential manner at consecutive treatment periods.
# Venous blood samples were withdrawn at regular time intervals. Plasma concentration data for Compound 1 and the selexipag parent and active metabolite were analyzed using appropriate non-compartmental techniques to obtain estimates of one or more of the following parameters: • Tlag • Tmax • Cmax • C12 • C24 • AUC(0-last) • AUC(0-inf) • AUC % extrap • lambda-z • T1/2e1 • CL/F • Frel: relative bioavailability of 0.06 mg Compound 1 tablets compared to the reference 0.03 mg Compound 1 capsule Pharmacodynamic Assessments:
# One or more of the above pharmacokinetic parameters were determined at one or more of the following time points: pre-dose and (referring to hours after administration): 0.5, 1, 1.5, 2, 3, 4, 5, 6, 8, 10, 12, 16, 20, 24, 36, 48, and 72 hours.
# [2] = test system: PAH patients; assay: 22-week randomized, double-blind, placebo-controlled study (Example 8); assay type: in vivo, human
# Procedure: A 22-week randomized, double-blind, placebo-controlled study with a dose titration period of up to 9 weeks was conducted. Sixty-one patients were randomized 2:1 Compound 1 to placebo. Right Heart Catheterization (RHC) measurements were obtained prior to study Day 1 of the dose titration period and at Week 22. The following values were obtained and recorded: pulmonary artery pressure (PAP) (systolic, diastolic, and mean), heart rate (HR), right atrial pressure (RAP), pulmonary capillary wedge pressure (PCWP) right ventricular pressure (RVP) and cardiac output (CO), pulmonary vascular resistance (PVR), arterial and mixed venous oxygen saturation […] (if applicable). Systemic vascular resistance (SVR) was estimated from blood pressure measurements. The 6-minute walk test (6MWD) was conducted according to the modified guidelines issued by the American Thoracic Society. See Am J Respir Crit Care Med 166:111-117, 2002.
# Primary efficacy endpoints for the study were: a) change from baseline in PVR after 22 weeks of treatment, and b) change from baseline in 6MWD after 22 weeks of treatment.
# Compound 1 was administered as a capsule in 0.01, 0.02, 0.03, 0.04, and 0.10 mg dose strengths. The formulation was supplied as a liquid-filled, size 4, hard-gelatin capsule containing Compound 1, polyoxyl 40 hydrogenated castor oil (Kolliphor® RH40) NF, butylated hydroxytoluene (BHT)NF, and colloidal silicon dioxide NF.
# The starting dose of Compound 1 was 0.01 mg twice daily. The dose of Compound 1 was titrated according to patient tolerability. If the initial dose was tolerated (0.01 mg twice daily), then the dose was increased once a week in the following fashion: 0.02 mg twice daily, 0.03 mg twice daily, 0.04 mg twice daily, 0.06 mg twice daily, 0.08 mg, 0.1 mg twice daily, 0.2 mg twice daily and 0.3 mg twice daily. The dose was optionally escalated to a possible maximum total daily dose of 0.6 mg (0.3 mg twice daily), pending tolerability. […] Compound 1 daily maintenance doses were titrated as high as 0.6 mg, and the most common dose was 0.4 mg.
# Subjects received concomitant oral disease-specific PAH therapy only if the dose remained stable for at least 3 months prior to the start of screening. This therapy consisted of the following: ERA and/or an agent acting on the NO pathway including the following: a PDE-5 inhibitor and a sGC stimulator. Subjects were instructed to continue the same dose and regimen of these medications for the duration of the study.
# [3] = 0.06-0.18 mg modified-release tablets vs 0.03 mg immediate-release capsule
# [4] = single oral dose, fasted healthy subjects
compound,measurement,setting,value
"O=C(O)COC[C@H]1CC[C@H](COC(=O)N(c2ccccc2)c2ccc(Cl)cc2)CC1 [Compound 1, 2-(((1r,4r)-4-(((4-chlorophenyl)(phenyl)carbamoyloxy)methyl)cyclohexyl)methoxy)acetic acid]",dose-adjusted total exposure (AUC(0-last)) compared to 0.03 mg immediate release capsule,[1]; 0.18 mg modified-release tablet,similar
same,relative bioavailability based on individual dose-adjusted Cmax vs immediate-release capsule,"[1]; 0.06, 0.12 and 0.18 mg modified-release tablet",statistically significantly lower
same,"dose-adjusted peak plasma exposure (Cmax/D), geometric mean ratios modified-release vs immediate-release",[1]; [3],28.7-41.2%
same,"dose-adjusted total plasma exposure (AUC/D), geometric mean ratios modified-release vs immediate-release",[1]; [3],63.3-97.9%
same,relative bioavailability based on individual dose-adjusted AUC(0-last) vs immediate-release capsule,[1]; 0.06 and 0.12 mg modified-release tablet,statistically significantly lower
same,half-life,"[1]; both sexes, human, plasma, oral, modified-release tablets, across all dose levels (0.06, 0.12, 0.18 mg), read-out: geometric mean half-life",19 to 23 h
same,Tmax,"[1]; both sexes, human, plasma, single oral administration of 0.06, 0.12 and 0.18 mg modified-release tablets, read-out: median Tmax",4 to 10 h
same,plasma concentrations at 24 hours post-dose compared to immediate-release formulation,[1]; modified-release tablet formulation,higher
same,increase of systemic exposure (Cmax and AUC) with dose,[1]; oral modified-release tablet formulation,slightly higher than dose-proportional
same,"Cmax, modified-release tablet vs immediate-release capsule",[1]; [4],reduced
same,"Tmax, modified-release tablet vs immediate-release capsule",[1]; [4],increased
same,"total plasma concentrations, modified-release tablet vs immediate-release capsule",[1]; [4],similar
same,correlation between plasma levels and improvements in PVR,"[2]; 22-week study period, p=0.004 (FIG. 17)",significant correlation
same,increase of least-squares mean 6MWD,"[2]; 22 weeks, not significantly different from placebo",36.2 m
same,adverse events,"[2]; PAH patients, 22-week study",consistent with other prostacyclin treatments for the management of PAH
same,mean reduction in BNP from baseline to Week 22 versus placebo,[2]; difference not significantly different,numerically greater
same,mean pre-dose and 4 hours post-dose plasma concentrations,[2]; during the 9-week dose titration period (FIG. 15),continued to rise
same,decrease of PVR from baseline to Week 22,"[2]; immediate-release capsule twice daily, titrated up to 0.6 mg total daily dose, p=0.02 vs placebo",163.9 dyn·s·cm^−5
same,correlation between PVR percentage change and dose,[2]; in vivo,no significant correlation
same,correlation between plasma levels and improvements in 6MWD,[2]; p=0.0037 (FIG. 18),significant correlation
same,correlation between plasma levels and improvements in BNP,[2]; p=0.047 (FIG. 19),significant correlation
same,mean steady-state pre-dose and 4-hours post-dose plasma concentrations,[2]; throughout the 13-week maintenance period (FIG. 15),maintained
